# Assay results published in patent US6458347B1, “Drug complex” (Asahi Kasei Kabushiki Kaisha, priority 1996, dated 2002).
# Like-named read-outs stand apart in the source and are kept apart here.
# Key:
# [1] = serum, 37° C.; serum species and time not stated
# Experimental: Each of compounds (24), (26), (28) and (30) (drug complexes) obtained in Example 8 was dissolved in physiological saline so that the concentration thereof in terms of dexamethasone was 80 μg/ml, to thereby obtain four solutions. 50 μl of each of the above-obtained four solutions was individually added to each of 250 μl of mouse serum and 250 μl of human serum, and the amounts of dexamethasone released from the respective compounds at 37° C. were determined as follows.
# The recovery and quantitative analysis of dexamethasone in serum were conducted as follows: 250 μl of phosphate buffer (pH 7.4) was added to […] of each of the sera to which the above-mentioned solution was added, to thereby obtain a mixture. To the obtained mixture was added 3 ml of a solution of hydrocortisone acetate (as an internal standard for the below-mentioned HPLC analysis, the concentration of hydrocortisone acetate: 10 ng/ml) in a mixture of acetonitrile and methanol (acetonitrile/methanol=4/1) and subjected to centrifugation (3,000 rpm, 10 minutes, 4° C.). To 700 μl of the resultant supernatant was added 700 µl of distilled water, to thereby obtain a mixture. The obtained mixture was subjected to filtration with a membrane filter (pore size 0.2 μm), and the resultant filtrate was used as a sample for the quantitative analysis of dexamethasone by HPLC under the following conditions. […]
# Column: Asahipak […] C18 (4.6×150 mm)
# Column temperature: room temperature
# The detected wavelength: 254 nm
# Mobile phase: Linear gradient
# 0 min.: 20% aqueous acetonitrile (20% CH3CN/H2O)
# 20 min.: 50% aqueous acetonitrile (50% CH3CN/H2O)
# [2] = Dissolution in physiological saline; format: physicochemical; settings: 1 mg in 10 ml of physiological saline
# B16 melanoma cells [3] = settings: 50 mg/kg in terms of paclitaxel, intravenous, six days after administration; paclitaxel 50 mg/kg
# Experimental: Further, a control solution was prepared by dissolving paclitaxel per se into a mixture of ethanol, Cremophore EL (manufactured and sold by Sigma, U.S.A.) and physiological saline. Thus, four types of solutions, namely, three different types of test sample solutions and one control solution were obtained.
# Twenty-eight female C57BL/6 mice (six weeks old) were divided into four groups, each consisting of seven mice, and subsequently, B16 melanoma cells were intradermally transplanted to the groin of each of the mice (5×10^6 cells per mouse). After eight days from the transplantation, the above-mentioned four types of solutions were administered to the transplanted mice at the tails thereof intravenously so that the mice belonging to the same group received the administration of the same type of solution. […] With respect to the control solution, the dose of paclitaxel was 50 mg/kg.
# (§1) Separately, a group consisting of thirteen mice, which were transplanted with B16 melanoma cells in the same manner as mentioned above, was provided. Each of the mice of such group received the administration of physiological saline, to thereby obtain a non-treated group of mice.
# The tumor volume was determined as follows. The external major and minor diameters (a and b, respectively) (each in mm) of the tumor were measured, and the tumor volume (V) was obtained according to the following formula. [formula]
# B16 melanoma cells [4] = settings: 50 mg/kg in terms of paclitaxel, intravenous, six days after administration; paclitaxel 50 mg/kg; remark: listed apart in the source
# Experimental: (§2) Further, a control solution was prepared by dissolving paclitaxel per se into a mixture of ethanol, Cremophore EL (manufactured and sold by Sigma, U.S.A.) and physiological saline.
# (§3) With respect to the control solution, the dose of paclitaxel was 50 mg/kg.
# as §1
# (§4) The tumor volume was determined as follows. […] [formula]
# colon 26 tumor cells = settings: 50 mg/kg in terms of paclitaxel, intravenous, repeated every 4 days; paclitaxel 50 mg/kg
# Experimental: as §2, §3
# Each of the mice of such group received the administration of only physiological saline in the same manner as in the case of the administration of the test sample solution, to thereby obtain a non-treated group of mice.
# Evaluation was made of the antitumor activity in terms of the change (with the lapse of time) of the average tumor volume (%).
# as §4
Molecule,dexamethasone introduced into the compound that was released [1],antitumor activity (relative average tumor volume) as compared to paclitaxel per se (B16 melanoma cells [3]),also measured
"CCC(=O)N[C@H](C(=O)OCC(=O)[C@@]1(O)[C@H](C)C[C@H]2[C@@H]3CCC4=CC(=O)C=C[C@]4(C)[C@@]3(F)[C@@H](O)C[C@@]21C)[C@@H](C)CC [compound (24), 21-propanoylisoleucyl-dexamethasone]",≤ 10%,,
"CCC(=O)NCC(=O)OCC(=O)[C@@]1(O)[C@H](C)C[C@H]2[C@@H]3CCC4=CC(=O)C=C[C@]4(C)[C@@]3(F)[C@@H](O)C[C@@]21C [compound (26), 21-propanoylglycyl-dexamethasone]",approximately 95%,,
"CCC(=O)N[C@@H](C)C(=O)OCC(=O)[C@@]1(O)[C@H](C)C[C@H]2[C@@H]3CCC4=CC(=O)C=C[C@]4(C)[C@@]3(F)[C@@H](O)C[C@@]21C [compound (28), 21-propanoylalanyl-dexamethasone]",approximately 70%,,
"CCC(=O)OCC(=O)[C@@]1(O)[C@H](C)C[C@H]2[C@@H]3CCC4=CC(=O)C=C[C@]4(C)[C@@]3(F)[C@@H](O)C[C@@]21C [compound (30), 21-propanoyl-dexamethasone]",≥ 98%,,
CC(=O)O[C@H]1C(=O)[C@@]2(C)[C@H]([C@H](OC(=O)c3ccccc3)[C@]3(O)C[C@H](OC(=O)[C@H](O)[C@@H](NC(=O)c4ccccc4)c4ccccc4)C(C)=C1C3(C)C)[C@]1(OC(C)=O)CO[C@@H]1C[C@@H]2O [paclitaxel],,,dissolution of paclitaxel per se [2]: could not be dissolved completely
carboxymethylated dextran-2′-Ala-paclitaxel [compound (7)],,excellent,
carboxymethylated dextran-2′-Gly-Gly-Phe-Gly-paclitaxel [compound (33)],,,antitumor activity (relative average tumor volume) as compared to paclitaxel per se (B16 melanoma cells [4]): significantly excellent; antitumor activity (change of average tumor volume with time) as compared to paclitaxel per se (colon 26 tumor cells): significantly excellent
carboxymethylated dextran-2′-Gly-paclitaxel [compound (3)],,significantly excellent,
carboxymethylated dextran-2′-Ile-paclitaxel [compound (15)],,relatively weak,
